# Measured values taken from patent US20230248626A1, “Compositions Comprising (Bio)-Alkanediols” (Symrise AG, priority 0001, published 2023).
# What was measured:
# Type in all cases: cell-based
# Candida albicans = assay: MIC test (growth inhibition, 96 well plates, OD); conditions: read-out: Minimum Inhibitory Concentration (MIC)
# Method: (§1) The MIC test is a test on growth inhibition. Estimation of Minimum Inhibitory Concentration (MIC) is executed in 96 well plates. Through the comparison of bacterial growth with positive and negative controls via optical density (OD), different concentrations of given test substances are evaluated.
# (§2) Bacteria are cultivated under adjusted conditions based on information of the German Collection of Microorganisms and Cell Cultures (DSMZ) and stored in 50% Glycerol prior to use. Afterwards, the following method was applied: Adding growth medium (according to microorganism) to each well of the microplate. Adding the test-substances in different concentrations, positive controls (water controls only with medium) and negative controls (benchmarks according to organism). Adding the microorganism in a concentration of 10^6 CFU/ml (CFU=colony forming units). Incubation of the microplates at appropriate conditions.
# (§3) According to resulting growth, substance concentrations are labelled either as inhibiting or not and MIC is defined as the lowest concentration where a complete growth inhibition is visible. Experiments at concentration limits (highest concentration labelled as growth and lowest concentration labelled as inhibiting) are performed at least twice.
# Corynebacterium jeikeium = assay: MIC test (growth inhibition, 96 well plates, OD); conditions: read-out: Minimum Inhibitory Concentration (MIC)
# Method: as §1, §2, §3
# Escherichia coli = assay: MIC test (growth inhibition, 96 well plates, OD); conditions: read-out: Minimum Inhibitory Concentration (MIC)
# Method: as §1, §2, §3
# Propionibacterium acnes = assay: MIC test (growth inhibition, 96 well plates, OD); conditions: Cutibacterium acnes; read-out: Minimum Inhibitory Concentration (MIC)
# Method: as §1, §2, §3
# Staphylococcus aureus = assay: MIC test (growth inhibition, 96 well plates, OD); conditions: read-out: Minimum Inhibitory Concentration (MIC)
# Method: as §1, §2, §3
# Staphylococcus hominis = assay: MIC test (growth inhibition, 96 well plates, OD); conditions: read-out: Minimum Inhibitory Concentration (MIC)
# Method: as §1, §2, §3
# [1] = system: Aspergillus brasiliensis (AB); assay: Preservation efficacy test (PET), European Pharmacopoeia 5.1.3
# Method: (§4) The preservation efficacy test (PET) was performed in accordance with European Pharmacopoeia § 5.1.3: The test is a reference European Pharmacopoeia method, that is to be used to evaluate the preservation system of a cosmetic or pharmaceutical preparation. The test consists of challenging the preparation under test, with prescribed inoculums of suitable microorganisms. The preservation porperties of the preparation are adequate if, in the conditions of the test, there is a significant fall or no increase, as appropriate, in the number of microorganisms in the inoculated preparations after the time prescribed.
# (§5) The test microorganisms which were used, are the following:
# (§6) Pseudomonas aeruginosa (PA) (bacterium); Staphylococcus aureus (SA) (bacterium); Escherichia coli (EC) (bacterium); Candida albicans (CA) (yeast); and Aspergillus brasiliensis (AB) (fungus).
# Candida albicans (CA) = assay: as above
# Method: as §4, §5, §6
# Escherichia coli (EC) = assay: as above
# Method: as §4, §5, §6
# [2] = system: Pseudomonas aeruginosa (PA); assay: as above
# Method: as §4, §5, §6
# [3] = system: Staphylococcus aureus (SA); assay: as above
# Method: as §4, §5, §6
smiles,measurement,setting,value
"CCCCC(O)C(C)O (centres unmarked) [2,3-heptanediol]",MIC,Candida albicans,> 5000 µg/mL
same,MIC,Corynebacterium jeikeium,> 5000 µg/mL
same,MIC,Escherichia coli,> 5000 µg/mL
same,MIC,Propionibacterium acnes,> 5000 µg/mL
same,MIC,Staphylococcus aureus,20000 µg/mL
same,MIC,Staphylococcus hominis,> 5000 µg/mL
same,number of microorganisms after 2 days,[1]; 0.1% in shampoo,"1,600,000"
same,number of microorganisms after 7 days,[1]; 0.1% in shampoo,"970,000"
same,number of microorganisms after 14 days,[1]; 0.1% in shampoo,"110,000"
same,number of microorganisms after 28 days,[1]; 0.1% in shampoo,"120,000"
same,number of microorganisms after 2 days,[1]; 0.2% in o/w emulsion,"1,600,000"
same,number of microorganisms after 7 days,[1]; 0.2% in o/w emulsion,"1,600,000"
same,number of microorganisms after 14 days,[1]; 0.2% in o/w emulsion,"3,000,000"
same,number of microorganisms after 28 days,[1]; 0.2% in o/w emulsion,"2,000,000"
same,number of microorganisms after 2 days,[1]; 0.4% in o/w emulsion,"790,000"
same,number of microorganisms after 7 days,[1]; 0.4% in o/w emulsion,"930,000"
same,number of microorganisms after 14 days,[1]; 0.4% in o/w emulsion,"500,000"
same,number of microorganisms after 28 days,[1]; 0.4% in o/w emulsion,"390,000"
same,number of microorganisms after 2 days,[1]; 0.4% in shampoo,"2,200,000"
same,number of microorganisms after 7 days,[1]; 0.4% in shampoo,"350,000"
same,number of microorganisms after 14 days,[1]; 0.4% in shampoo,"130,000"
same,number of microorganisms after 28 days,[1]; 0.4% in shampoo,"140,000"
same,number of microorganisms after 2 days,Candida albicans (CA); 0.1% in shampoo,"110,000"
same,number of microorganisms after 7 days,Candida albicans (CA); 0.1% in shampoo,"20,000"
same,number of microorganisms after 14 days,Candida albicans (CA); 0.1% in shampoo,100
same,number of microorganisms after 28 days,Candida albicans (CA); 0.1% in shampoo,1
same,number of microorganisms after 2 days,Candida albicans (CA); 0.2% in o/w emulsion,"1,900,000"
same,number of microorganisms after 7 days,Candida albicans (CA); 0.2% in o/w emulsion,"2,200,000"
same,number of microorganisms after 14 days,Candida albicans (CA); 0.2% in o/w emulsion,"2,100,000"
same,number of microorganisms after 28 days,Candida albicans (CA); 0.2% in o/w emulsion,"370,000"
same,number of microorganisms after 2 days,Candida albicans (CA); 0.4% in o/w emulsion,"640,000"
same,number of microorganisms after 7 days,Candida albicans (CA); 0.4% in o/w emulsion,"350,000"
same,number of microorganisms after 14 days,Candida albicans (CA); 0.4% in o/w emulsion,"130,000"
same,number of microorganisms after 28 days,Candida albicans (CA); 0.4% in o/w emulsion,"11,000"
same,number of microorganisms after 2 days,Candida albicans (CA); 0.4% in shampoo,81
same,number of microorganisms after 7 days,Candida albicans (CA); 0.4% in shampoo,1
same,number of microorganisms after 14 days,Candida albicans (CA); 0.4% in shampoo,1
same,number of microorganisms after 28 days,Candida albicans (CA); 0.4% in shampoo,1
same,number of microorganisms after 2 days,Escherichia coli (EC); 0.1% in shampoo,"1,100,000"
same,number of microorganisms after 7 days,Escherichia coli (EC); 0.1% in shampoo,"1,500,000"
same,number of microorganisms after 14 days,Escherichia coli (EC); 0.1% in shampoo,"1,600,000"
same,number of microorganisms after 28 days,Escherichia coli (EC); 0.1% in shampoo,"1,400,000"
same,number of microorganisms after 2 days,Escherichia coli (EC); 0.2% in o/w emulsion,"170,000"
same,number of microorganisms after 7 days,Escherichia coli (EC); 0.2% in o/w emulsion,"1,600"
same,number of microorganisms after 14 days,Escherichia coli (EC); 0.2% in o/w emulsion,82
same,number of microorganisms after 28 days,Escherichia coli (EC); 0.2% in o/w emulsion,1
same,number of microorganisms after 2 days,Escherichia coli (EC); 0.4% in o/w emulsion,"320,000"
same,number of microorganisms after 7 days,Escherichia coli (EC); 0.4% in o/w emulsion,"2,400"
same,number of microorganisms after 14 days,Escherichia coli (EC); 0.4% in o/w emulsion,1
same,number of microorganisms after 28 days,Escherichia coli (EC); 0.4% in o/w emulsion,1
same,number of microorganisms after 2 days,Escherichia coli (EC); 0.4% in shampoo,"1,200,000"
same,number of microorganisms after 7 days,Escherichia coli (EC); 0.4% in shampoo,"100,000"
same,number of microorganisms after 14 days,Escherichia coli (EC); 0.4% in shampoo,"75,000"
same,number of microorganisms after 28 days,Escherichia coli (EC); 0.4% in shampoo,"380,000"
same,number of microorganisms after 2 days,[2]; 0.1% in shampoo,"230,000"
same,number of microorganisms after 7 days,[2]; 0.1% in shampoo,"730,000"
same,number of microorganisms after 14 days,[2]; 0.1% in shampoo,"3,500,000"
same,number of microorganisms after 28 days,[2]; 0.1% in shampoo,"7,000,000"
same,number of microorganisms after 2 days,[2]; 0.2% in o/w emulsion,1
same,number of microorganisms after 7 days,[2]; 0.2% in o/w emulsion,1
same,number of microorganisms after 14 days,[2]; 0.2% in o/w emulsion,1
same,number of microorganisms after 28 days,[2]; 0.2% in o/w emulsion,1
same,number of microorganisms after 2 days,[2]; 0.4% in o/w emulsion,1
same,number of microorganisms after 7 days,[2]; 0.4% in o/w emulsion,1
same,number of microorganisms after 14 days,[2]; 0.4% in o/w emulsion,1
same,number of microorganisms after 28 days,[2]; 0.4% in o/w emulsion,1
same,number of microorganisms after 2 days,[2]; 0.4% in shampoo,"2,900"
same,number of microorganisms after 7 days,[2]; 0.4% in shampoo,1
same,number of microorganisms after 14 days,[2]; 0.4% in shampoo,1
same,number of microorganisms after 28 days,[2]; 0.4% in shampoo,1
same,number of microorganisms after 2 days,[3]; 0.1% in shampoo,"27,000"
same,number of microorganisms after 7 days,[3]; 0.1% in shampoo,490
same,number of microorganisms after 14 days,[3]; 0.1% in shampoo,1
same,number of microorganisms after 28 days,[3]; 0.1% in shampoo,1
same,number of microorganisms after 2 days,[3]; 0.2% in o/w emulsion,"1,300,000"
same,number of microorganisms after 7 days,[3]; 0.2% in o/w emulsion,"790,000"
same,number of microorganisms after 14 days,[3]; 0.2% in o/w emulsion,55
same,number of microorganisms after 28 days,[3]; 0.2% in o/w emulsion,1
same,number of microorganisms after 2 days,[3]; 0.4% in o/w emulsion,"1,000,000"
same,number of microorganisms after 7 days,[3]; 0.4% in o/w emulsion,"12,000"
same,number of microorganisms after 14 days,[3]; 0.4% in o/w emulsion,1
same,number of microorganisms after 28 days,[3]; 0.4% in o/w emulsion,1
same,number of microorganisms after 2 days,[3]; 0.4% in shampoo,"3,500"
same,number of microorganisms after 7 days,[3]; 0.4% in shampoo,1
same,number of microorganisms after 14 days,[3]; 0.4% in shampoo,1
same,number of microorganisms after 28 days,[3]; 0.4% in shampoo,1
